# B1: Solute carrier family 22 member 1 (Homo sapiens) (protein)
# chain: MPTVDDILEQVGESGWFQKQAFLILCLLSAAFAPICVGIVFLGFTPDHHCQSPGVAELSQRCGWSPAEELNYTVPGLGPAGEAFLGQCRRYEVDWNQSALSCVDPLASLATNRSHLPLGPCQDGWVYDTPGSSIVTEFNLVCADSWKLDLFQSCLNAGFLFGSLGVGYFADRFGRKLCLLGTVLVNAVSGVLMAFSPNYMSMLLFRLLQGLVSKGNWMAGYTLITEFVGSGSRRTVAIMYQMAFTVGLVALTGLAYALPHWRWLQLAVSLPTFLFLLYYWCVPESPRWLLSQKRNTEAIKIMDHIAQKNGKLPPADLKMLSLEEDVTEKLSPSFADLFRTPRLRKRTFILMYLWFTDSVLYQGLILHMGATSGNLYLDFLYSALVEIPGAFIALITIDRVGRIYPMAMSNLLAGAACLVMIFISPDLHWLNIIIMCVGRMGITIAIQMICLVNAELYPTFVRNLGVMVCSSLCDIGGIITPFIVFRLREVWQALPLILFAVLGLLAAGVTLLLPETKGVALPETMKDAENLGRKAKPKENTIYLKVQTSEPSGT
# How the values were obtained:
# [1] = molecular target: T1, Solute carrier family 22 member 1 (Homo sapiens, UniProt O15245); experiment: TP_TRANSPORTER: inhibition of MPP+ uptake (MPP+: 0.85 uM, Verapamil: 5000 uM) in Xenopus laevis oocytes; format: functional, cell-based; settings: oocyte
# T1 sequence (O15245 whole entry): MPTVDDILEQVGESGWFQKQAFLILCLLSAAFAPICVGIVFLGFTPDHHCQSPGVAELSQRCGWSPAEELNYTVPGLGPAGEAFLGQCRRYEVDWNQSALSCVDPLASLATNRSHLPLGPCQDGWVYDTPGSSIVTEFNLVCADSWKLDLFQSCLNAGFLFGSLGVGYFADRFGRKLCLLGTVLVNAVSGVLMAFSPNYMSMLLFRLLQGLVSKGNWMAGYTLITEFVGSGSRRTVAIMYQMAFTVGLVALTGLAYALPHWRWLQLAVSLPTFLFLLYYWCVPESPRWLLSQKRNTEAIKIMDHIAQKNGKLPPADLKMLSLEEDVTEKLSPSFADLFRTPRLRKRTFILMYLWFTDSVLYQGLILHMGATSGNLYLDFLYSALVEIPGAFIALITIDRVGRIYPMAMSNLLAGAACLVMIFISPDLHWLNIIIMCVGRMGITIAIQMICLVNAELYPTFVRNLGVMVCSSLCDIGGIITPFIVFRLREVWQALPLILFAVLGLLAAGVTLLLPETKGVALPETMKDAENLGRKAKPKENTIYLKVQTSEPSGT
# [2] = molecular target: T1, Solute carrier family 22 member 1; experiment: TP_TRANSPORTER: inhibition of MPP+ uptake (MPP+: 0.85 uM, Quinidine: 1000 uM) in Xenopus laevis oocytes; format: functional, cell-based; settings: oocyte
# [3] = molecular target: T1, Solute carrier family 22 member 1; experiment: TP_TRANSPORTER: inhibition of MPP+ uptake (MPP+: 0.85 uM, Procainamide: 5000 uM) in Xenopus laevis oocytes; format: functional, cell-based; settings: oocyte
# [4] = molecular target: T1, Solute carrier family 22 member 1; experiment: TP_TRANSPORTER: inhibition of MPP+ uptake in Xenopus laevis oocytes; format: functional, cell-based, Oocyte
# [5] = molecular target: T1, Solute carrier family 22 member 1; experiment: TP_TRANSPORTER: inhibition of MPP+ uptake (MPP+: 0.85 uM, Pancuronium: 1000 uM) in Xenopus laevis oocytes; format: functional, cell-based; settings: oocyte
# [6] = molecular target: T1, Solute carrier family 22 member 1; experiment: TP_TRANSPORTER: inhibition of MPP+ uptake (MPP+: 0.85 uM, Thymidine: 5000 uM) in Xenopus laevis oocytes; format: functional, cell-based; settings: oocyte
# [7] = molecular target: T1, Solute carrier family 22 member 1; experiment: TP_TRANSPORTER: inhibition of MPP+ uptake (MPP+: 0.15 uM, Inosine: 1000 uM) in Xenopus laevis oocytes; format: functional, cell-based; settings: oocyte
# [8] = molecular target: T1, Solute carrier family 22 member 1; experiment: TP_TRANSPORTER: inhibition of MPP+ uptake (MPP+: 0.85 uM, Quinine: 1000 uM) in Xenopus laevis oocytes; format: functional, cell-based; settings: oocyte
# [9] = molecular target: T1, Solute carrier family 22 member 1; experiment: TP_TRANSPORTER: inhibition of MPP+ uptake (MPP+: 0.85 uM, NMN: 5000 uM) in Xenopus laevis oocytes; format: functional, cell-based; settings: oocyte
# [10] = substrate: C[n+]1ccc(-c2ccccc2)cc1; experiment: TP_TRANSPORTER: uptake in Xenopus laevis oocytes; format: functional, cell-based, Oocyte
molecule,measurement,setting,value
COc1ccc(CCN(C)CCCC(C#N)(c2ccc(OC)c(OC)c2)C(C)C)cc1OC (configuration not stated),Activity,[1],inhibitor [+]
C=C[C@H]1C[N@@]2CC[C@H]1C[C@@H]2[C@@H](O)c1ccnc2ccc(OC)cc12 [QUINIDINE],Activity,[2],inhibitor [+]
CCN(CC)CCNC(=O)c1ccc(N)cc1 [PROCAINAMIDE],Activity,[3],inhibitor [+]
CC(=O)O[C@H]1C[C@@H]2CC[C@@H]3[C@H](CC[C@@]4(C)[C@H]3C[C@H]([N+]3(C)CCCCC3)[C@@H]4OC(C)=O)[C@@]2(C)C[C@@H]1N1CCCCC1 [VECURONIUM],Ki,[4],120 µM
CC(=O)O[C@H]1C[C@@H]2CC[C@@H]3[C@H](CC[C@@]4(C)[C@H]3C[C@H]([N+]3(C)CCCCC3)[C@@H]4OC(C)=O)[C@@]2(C)C[C@@H]1[N+]1(C)CCCCC1 [PANCURONIUM],Activity,[5],inhibitor [+]
CC[N+](CC)(CC)CC [TETRYLAMMONIUM],Ki,[4],163 µM
Cc1cn([C@H]2C[C@H](O)[C@@H](CO)O2)c(=O)[nH]c1=O [DOXRIBTIMINE],Activity,[6],inhibitor [+]
OC[C@H]1O[C@@H](n2cnc3c(O)ncnc32)[C@H](O)[C@@H]1O [INOSINE],Activity,[7],inhibitor [+]
C=C[C@H]1C[N@@]2CC[C@H]1C[C@H]2[C@H](O)c1ccnc2ccc(OC)cc12 [QUININE],Activity,[8],inhibitor [+]
CCN1/C(=C/c2ccc3ccccc3[n+]2CC)C=Cc2ccccc21,Ki,[4],4.4 µM
CNC(=O)c1cccnc1 [NICOTINYL METHYLAMIDE],Activity,[9],inhibitor [+]
B1,Km,[10],14.6 µM
